From publication PMC9719519, “Non-classical ferroptosis inhibition by a small molecule targeting PHB2” (Nature Communications, 2022)

What was measured:
Experiment in all cases: biochemical
Set-up in all cases: Eurofins recombinant human kinase profiling, remaining kinase activity as % of control, 10 uM ATP
Conditions in all cases: ATP 10 uM; read-out: %Ctrl@10 μM
AMPKα1(h) = molecular target: T1, AMPKα1(h) (Homo sapiens, UniProt Q13131)
T1 construct: gene PRKAA1
Outline: (§1)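 Recombinant human kinases, 401 in total, screened using an outsourced kinase profiling assay.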

Aurora-A(h) = molecular target: T2, Aurora-A(h) (Homo sapiens, UniProt O14965)
T2 construct: gene AURKA
Outline: as §1

Axl(h) = Axl(h) (Homo sapiens, UniProt P30530)
Chain of Axl(h) (P30530 whole entry): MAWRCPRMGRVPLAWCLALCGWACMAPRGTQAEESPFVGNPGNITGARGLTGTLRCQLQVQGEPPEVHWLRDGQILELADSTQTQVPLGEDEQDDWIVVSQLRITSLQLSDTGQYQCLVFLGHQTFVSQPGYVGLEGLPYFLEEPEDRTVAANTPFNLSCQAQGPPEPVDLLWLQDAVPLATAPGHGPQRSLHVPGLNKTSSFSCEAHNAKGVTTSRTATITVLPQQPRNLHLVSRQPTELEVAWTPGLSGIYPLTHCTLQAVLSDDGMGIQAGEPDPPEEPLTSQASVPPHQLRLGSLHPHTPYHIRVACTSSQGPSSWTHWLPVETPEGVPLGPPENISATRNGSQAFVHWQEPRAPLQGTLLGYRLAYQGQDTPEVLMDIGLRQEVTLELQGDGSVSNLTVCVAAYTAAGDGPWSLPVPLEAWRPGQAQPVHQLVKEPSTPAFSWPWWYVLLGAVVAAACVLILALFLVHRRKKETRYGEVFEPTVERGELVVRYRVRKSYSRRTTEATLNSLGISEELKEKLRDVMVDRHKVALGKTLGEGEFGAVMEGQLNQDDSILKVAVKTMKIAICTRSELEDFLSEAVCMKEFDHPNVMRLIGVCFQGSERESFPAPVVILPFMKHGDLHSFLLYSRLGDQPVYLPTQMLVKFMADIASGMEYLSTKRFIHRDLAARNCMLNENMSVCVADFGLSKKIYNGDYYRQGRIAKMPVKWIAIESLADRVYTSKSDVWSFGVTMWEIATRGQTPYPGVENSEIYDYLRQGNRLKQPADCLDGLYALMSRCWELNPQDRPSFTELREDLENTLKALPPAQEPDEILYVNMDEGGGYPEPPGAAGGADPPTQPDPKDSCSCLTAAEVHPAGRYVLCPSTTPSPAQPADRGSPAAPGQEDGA
Outline: as §1

CDKL2(h) = CDKL2(h) (Homo sapiens, UniProt Q92772)
Outline: as §1

DDR1(h) = DDR1(h) (Homo sapiens, UniProt Q08345)
Outline: as §1

DRAK1(h) = molecular target: T3, DRAK1(h) (Homo sapiens, UniProt Q9UEE5)
T3 construct: gene STK17A
Outline: as §1

DRAK2(h) = molecular target: T4, DRAK2(h) (Homo sapiens, UniProt O94768)
T4 construct: gene STK17B
T4 sequence (O94768 whole entry): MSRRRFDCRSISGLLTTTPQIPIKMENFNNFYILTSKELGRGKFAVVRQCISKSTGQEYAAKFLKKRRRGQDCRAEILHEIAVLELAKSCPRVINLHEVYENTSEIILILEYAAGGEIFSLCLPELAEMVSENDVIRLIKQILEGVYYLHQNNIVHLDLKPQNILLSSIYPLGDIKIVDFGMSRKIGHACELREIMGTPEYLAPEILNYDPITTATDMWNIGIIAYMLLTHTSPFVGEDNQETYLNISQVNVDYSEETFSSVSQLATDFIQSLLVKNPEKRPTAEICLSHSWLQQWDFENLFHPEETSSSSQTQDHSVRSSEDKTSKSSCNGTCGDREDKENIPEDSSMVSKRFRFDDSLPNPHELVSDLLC
Outline: as §1

DYRK1A(h) = DYRK1A(h) (Homo sapiens, UniProt Q13627)
Outline: as §1

EGFR(h) = EGFR(h) (Homo sapiens, UniProt P00533)
Outline: as §1

ErbB4(h) = ErbB4(h) (Homo sapiens, UniProt Q15303)
Outline: as §1

FGFR2(N549H)(h) = FGFR2(N549H)(h) (Homo sapiens, UniProt P21802, N549H)
Outline: as §1

FGFR4(h) = FGFR4(h) (Homo sapiens, UniProt P22455)
Chain of FGFR4(h) (P22455 whole entry): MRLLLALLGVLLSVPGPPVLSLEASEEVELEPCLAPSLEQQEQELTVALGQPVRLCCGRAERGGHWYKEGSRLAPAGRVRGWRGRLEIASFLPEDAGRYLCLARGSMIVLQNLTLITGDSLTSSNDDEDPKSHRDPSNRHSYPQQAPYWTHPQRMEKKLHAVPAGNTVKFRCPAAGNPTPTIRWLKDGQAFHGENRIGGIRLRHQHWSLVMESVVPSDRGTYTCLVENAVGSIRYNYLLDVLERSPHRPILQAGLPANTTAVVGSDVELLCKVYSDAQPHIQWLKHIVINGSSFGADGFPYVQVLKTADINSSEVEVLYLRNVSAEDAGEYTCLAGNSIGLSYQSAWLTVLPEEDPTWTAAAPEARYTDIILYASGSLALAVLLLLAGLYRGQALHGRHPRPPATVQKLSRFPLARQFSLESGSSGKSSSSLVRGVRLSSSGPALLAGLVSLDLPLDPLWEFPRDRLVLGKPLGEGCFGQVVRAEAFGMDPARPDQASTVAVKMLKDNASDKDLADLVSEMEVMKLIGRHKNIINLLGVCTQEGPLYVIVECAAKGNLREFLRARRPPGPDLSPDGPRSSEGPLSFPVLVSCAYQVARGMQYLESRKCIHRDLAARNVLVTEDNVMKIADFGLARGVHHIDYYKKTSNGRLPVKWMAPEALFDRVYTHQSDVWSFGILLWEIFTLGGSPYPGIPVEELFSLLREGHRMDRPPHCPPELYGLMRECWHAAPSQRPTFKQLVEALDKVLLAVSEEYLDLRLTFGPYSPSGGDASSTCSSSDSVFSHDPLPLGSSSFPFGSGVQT
Outline: as §1

Fms(h) = molecular target: T5, Fms(h) (Homo sapiens, UniProt P07333)
T5 construct: gene CSF1R
Outline: as §1

HIPK3(h) = HIPK3(h) (Homo sapiens, UniProt Q9H422)
Outline: as §1

MELK(h) = MELK(h) (Homo sapiens, UniProt Q14680)
Outline: as §1

NEK11(h) = NEK11(h) (Homo sapiens, UniProt Q8NG66)
Outline: as §1

NEK4(h) = NEK4(h) (Homo sapiens, UniProt P51957)
Outline: as §1

[1] = molecular target: T6, PI3 Kinase (p110(E542K)/p85)(h) (Homo sapiens, UniProt P42336, E542K)
T6 construct: gene PIK3CA
T6 sequence (P42336 whole entry E542K): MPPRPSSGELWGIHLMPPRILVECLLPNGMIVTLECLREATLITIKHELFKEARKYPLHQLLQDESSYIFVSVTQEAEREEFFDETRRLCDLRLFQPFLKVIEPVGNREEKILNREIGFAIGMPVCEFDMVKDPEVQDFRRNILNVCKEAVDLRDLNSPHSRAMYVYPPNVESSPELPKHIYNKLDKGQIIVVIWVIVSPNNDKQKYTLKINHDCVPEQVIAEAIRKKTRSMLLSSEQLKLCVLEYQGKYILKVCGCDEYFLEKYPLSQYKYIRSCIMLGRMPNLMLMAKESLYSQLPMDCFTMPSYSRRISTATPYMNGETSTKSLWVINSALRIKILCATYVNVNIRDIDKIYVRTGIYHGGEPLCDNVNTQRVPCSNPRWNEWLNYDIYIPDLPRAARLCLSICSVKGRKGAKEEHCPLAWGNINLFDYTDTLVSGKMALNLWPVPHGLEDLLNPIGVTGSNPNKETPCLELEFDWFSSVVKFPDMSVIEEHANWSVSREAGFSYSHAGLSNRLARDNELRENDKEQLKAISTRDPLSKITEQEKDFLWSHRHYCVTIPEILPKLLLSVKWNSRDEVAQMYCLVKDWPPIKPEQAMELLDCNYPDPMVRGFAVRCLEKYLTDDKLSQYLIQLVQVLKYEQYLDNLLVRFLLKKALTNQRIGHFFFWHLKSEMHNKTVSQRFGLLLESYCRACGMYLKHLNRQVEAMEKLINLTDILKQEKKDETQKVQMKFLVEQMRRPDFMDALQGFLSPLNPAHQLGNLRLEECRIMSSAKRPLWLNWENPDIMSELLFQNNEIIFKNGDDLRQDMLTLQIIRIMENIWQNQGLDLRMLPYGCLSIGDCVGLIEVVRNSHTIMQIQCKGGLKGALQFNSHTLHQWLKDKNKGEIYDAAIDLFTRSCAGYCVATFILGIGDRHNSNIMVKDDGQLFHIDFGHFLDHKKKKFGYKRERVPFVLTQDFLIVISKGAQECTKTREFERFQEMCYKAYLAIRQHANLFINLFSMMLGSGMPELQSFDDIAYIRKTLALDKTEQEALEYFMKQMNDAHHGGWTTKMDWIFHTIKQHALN
T6 sequence (P27986 whole entry partner): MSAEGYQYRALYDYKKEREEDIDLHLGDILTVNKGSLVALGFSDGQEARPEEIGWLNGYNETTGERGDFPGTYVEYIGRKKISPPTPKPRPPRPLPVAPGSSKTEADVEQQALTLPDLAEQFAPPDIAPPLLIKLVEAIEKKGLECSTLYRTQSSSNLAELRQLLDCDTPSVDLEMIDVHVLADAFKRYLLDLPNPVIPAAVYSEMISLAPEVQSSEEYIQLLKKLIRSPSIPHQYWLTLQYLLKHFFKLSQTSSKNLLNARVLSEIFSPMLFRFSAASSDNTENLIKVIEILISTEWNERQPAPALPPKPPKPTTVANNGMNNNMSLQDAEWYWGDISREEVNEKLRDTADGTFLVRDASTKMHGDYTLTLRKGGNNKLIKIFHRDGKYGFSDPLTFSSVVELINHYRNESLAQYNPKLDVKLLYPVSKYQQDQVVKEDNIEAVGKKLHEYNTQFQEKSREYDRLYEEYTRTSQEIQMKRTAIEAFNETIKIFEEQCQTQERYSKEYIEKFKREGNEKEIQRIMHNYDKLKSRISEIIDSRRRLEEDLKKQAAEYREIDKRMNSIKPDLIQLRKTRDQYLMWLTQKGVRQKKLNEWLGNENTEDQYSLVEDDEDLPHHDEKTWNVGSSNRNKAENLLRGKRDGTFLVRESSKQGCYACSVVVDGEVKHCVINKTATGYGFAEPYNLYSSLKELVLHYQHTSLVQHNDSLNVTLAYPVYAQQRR
Outline: as §1

PKCγ(h) = molecular target: T7, PKCγ(h) (Homo sapiens, UniProt P05129)
T7 construct: gene PRKCG
Outline: as §1

PKCι(h) = molecular target: T8, PKCι(h) (Homo sapiens, UniProt P41743)
T8 construct: gene PRKCI
T8 sequence (P41743 whole entry): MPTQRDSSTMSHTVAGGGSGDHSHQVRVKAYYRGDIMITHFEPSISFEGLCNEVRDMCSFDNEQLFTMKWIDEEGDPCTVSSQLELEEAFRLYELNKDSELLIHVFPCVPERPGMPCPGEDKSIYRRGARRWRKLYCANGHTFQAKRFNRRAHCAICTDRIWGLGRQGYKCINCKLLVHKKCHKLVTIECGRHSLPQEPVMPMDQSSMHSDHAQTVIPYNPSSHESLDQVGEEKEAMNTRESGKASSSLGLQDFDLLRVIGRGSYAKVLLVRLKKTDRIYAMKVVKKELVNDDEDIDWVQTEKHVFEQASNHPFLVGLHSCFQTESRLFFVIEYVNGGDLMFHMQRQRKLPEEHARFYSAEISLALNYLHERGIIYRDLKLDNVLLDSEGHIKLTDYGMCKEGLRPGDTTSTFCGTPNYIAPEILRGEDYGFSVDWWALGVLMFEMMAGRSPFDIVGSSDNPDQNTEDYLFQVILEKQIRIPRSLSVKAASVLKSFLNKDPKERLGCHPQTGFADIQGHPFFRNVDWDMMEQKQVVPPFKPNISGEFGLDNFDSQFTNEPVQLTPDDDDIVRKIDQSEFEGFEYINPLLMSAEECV
Outline: as §1

TSSK1(h) = molecular target: T9, TSSK1(h) (Homo sapiens, UniProt Q9BXA7)
T9 construct: gene TSSK1B
T9 sequence (Q9BXA7 whole entry): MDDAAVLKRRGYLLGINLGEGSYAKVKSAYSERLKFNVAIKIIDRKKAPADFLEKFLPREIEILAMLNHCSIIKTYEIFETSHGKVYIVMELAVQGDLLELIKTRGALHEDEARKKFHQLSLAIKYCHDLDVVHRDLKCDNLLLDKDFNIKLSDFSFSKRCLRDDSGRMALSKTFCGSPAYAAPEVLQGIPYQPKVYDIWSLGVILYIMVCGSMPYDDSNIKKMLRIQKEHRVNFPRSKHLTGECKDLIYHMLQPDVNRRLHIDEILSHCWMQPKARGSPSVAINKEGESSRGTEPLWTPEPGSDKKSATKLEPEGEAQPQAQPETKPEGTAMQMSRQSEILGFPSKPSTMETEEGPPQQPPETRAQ
Outline: as §1

ULK1(h) = ULK1(h) (Homo sapiens, UniProt O75385)
Outline: as §1

ULK2(h) = ULK2(h) (Homo sapiens, UniProt Q8IYT8)
Outline: as §1

Work on `C1=C(c2nc(-c3cnn(C4CCNCC4)c3)cn3cc(-c4ccccc4)nc23)CCOC1` [YL-939] yielded a remaining activity at 10 µM (AMPKα1(h)) of 90%, a remaining activity at 10 µM (Aurora-A(h)) of 111% and a remaining activity at 10 µM (Axl(h)) of 84%. The remaining activity at 10 µM (CDKL2(h)) was 74%, the remaining activity at 10 µM (DDR1(h)) was 98% and the remaining activity at 10 µM (DRAK1(h)) was 60%. For the same molecule, the remaining activity at 10 µM (DRAK2(h)) was 128%, the remaining activity at 10 µM (DYRK1A(h)) was 83% and the remaining activity at 10 µM (EGFR(h)) was 87%. It also gave a remaining activity at 10 µM (ErbB4(h)) of 99%, a remaining activity at 10 µM (FGFR2(N549H)(h)) of 94% and a remaining activity at 10 µM (FGFR4(h)) of 94%. For the same molecule, the remaining activity at 10 µM (Fms(h)) was 122%, the remaining activity at 10 µM (HIPK3(h)) was 86% and the remaining activity at 10 µM (MELK(h)) was 91%. The remaining activity at 10 µM (NEK11(h)) was 86%, the remaining activity at 10 µM (NEK4(h)) was 118% and the remaining activity at 10 µM [1] was 99%. The remaining activity at 10 µM (PKCγ(h)) was 96%, the remaining activity at 10 µM (PKCι(h)) was 85% and the remaining activity at 10 µM (TSSK1(h)) was 80%. For the same molecule, the remaining activity at 10 µM (ULK1(h)) was 65% and the remaining activity at 10 µM (ULK2(h)) was 77%.
